Experimental data reported in ChEMBL document CHEMBL4219077, “Methyllucidone inhibits STAT3 activity by regulating the expression of the protein tyrosine phosphatase MEG2 in DU145 prostate carcinoma cells” (Bioorg Med Chem Lett, 2018).
The source made the active and inactive calls. No cut-off for these calls is given here.

Legend:
[1] = system: DU-145; test: Cell cycle arrest in human DU145 cells assessed as apoptotic cells at 10 uM after 48 hrs by FACS analysis (reference value: 8.1%); format: functional
[2] = system: DU-145; test: Induction of apoptosis in human DU145 cells assessed as decrease in procaspase-3 level up to 10 uM by Western blot method; format: functional, cell-based
[3] = system: DU-145; test: Cell cycle arrest in human DU145 cells assessed as accumulation at S phase at 10 uM after 24 hrs by FACS analysis (reference value: 7.7%); format: functional
[4] = system: DU-145; test: Effect on total STAT3 protein expression in human DU145 cells up to 20 uM after 24 hrs by Western blot method; format: ADME, cell-based; conditions: du-145, 24 h
[5] = biological target: Proto-oncogene tyrosine-protein kinase Src (Homo sapiens) (UniProt P12931); test: Inhibition of SRC phosphorylation (unknown origin)
Sequence of Proto-oncogene tyrosine-protein kinase Src (Homo sapiens) (P12931 2-536 limits assumed): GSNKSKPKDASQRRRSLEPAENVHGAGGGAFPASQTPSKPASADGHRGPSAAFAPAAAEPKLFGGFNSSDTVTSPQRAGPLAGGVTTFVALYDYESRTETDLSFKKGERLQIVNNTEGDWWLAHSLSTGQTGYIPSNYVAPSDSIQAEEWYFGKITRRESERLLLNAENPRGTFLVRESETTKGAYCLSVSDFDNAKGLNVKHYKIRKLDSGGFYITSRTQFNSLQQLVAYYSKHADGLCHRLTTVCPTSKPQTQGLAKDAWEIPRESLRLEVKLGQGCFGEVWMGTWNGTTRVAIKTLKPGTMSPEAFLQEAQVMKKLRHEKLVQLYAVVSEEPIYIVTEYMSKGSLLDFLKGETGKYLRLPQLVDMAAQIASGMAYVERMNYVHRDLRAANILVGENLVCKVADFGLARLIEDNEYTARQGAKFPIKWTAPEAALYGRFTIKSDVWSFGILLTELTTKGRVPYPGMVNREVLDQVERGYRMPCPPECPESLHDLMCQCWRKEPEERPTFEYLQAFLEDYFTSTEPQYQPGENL

[6] = system: DU-145; test: Increase in MEG2 protein expression in human DU145 cells at 10 uM by Western blot method; format: functional, cell-based; conditions: TDE = time-dependent effect
[7] = system: DU-145; test: Cell cycle arrest in human DU145 cells assessed as apoptotic cells at 10 uM after 24 hrs by FACS analysis (reference value: 8.1%); format: functional
[8] = system: PC-3; test: Antiproliferative activity against human PC3 cells by WST1 assay; format: functional, cell-based
[9] = biological target: Janus Kinase (JAK) (Homo sapiens) (UniProt P52333+P23458+O60674+P29597); test: Inhibition of JAK phosphorylation (unknown origin); format: protein assay
[10] = system: DU-145; test: Increase in cleaved caspase-3 level in human DU145 cells up to 10 uM after 24 hrs by Western blot method; format: functional, cell-based
[11] = system: DU-145; test: Cell cycle arrest in human DU145 cells assessed as apoptotic cells at 10 uM after 12 hrs by FACS analysis (reference value: 8.1%); format: functional
[12] = biological target: T1, PTPN9/STAT3 (Homo sapiens) (UniProt P40763+P43378); test: Modulation of MEG2 in human DU145 cells assessed as inhibition of STAT3 activation by measuring down regulation of Cyclin A level at 10 uM after 24 hrs by Western blot method; format: cell-based
T1 sequence (P40763 2-770 limits assumed): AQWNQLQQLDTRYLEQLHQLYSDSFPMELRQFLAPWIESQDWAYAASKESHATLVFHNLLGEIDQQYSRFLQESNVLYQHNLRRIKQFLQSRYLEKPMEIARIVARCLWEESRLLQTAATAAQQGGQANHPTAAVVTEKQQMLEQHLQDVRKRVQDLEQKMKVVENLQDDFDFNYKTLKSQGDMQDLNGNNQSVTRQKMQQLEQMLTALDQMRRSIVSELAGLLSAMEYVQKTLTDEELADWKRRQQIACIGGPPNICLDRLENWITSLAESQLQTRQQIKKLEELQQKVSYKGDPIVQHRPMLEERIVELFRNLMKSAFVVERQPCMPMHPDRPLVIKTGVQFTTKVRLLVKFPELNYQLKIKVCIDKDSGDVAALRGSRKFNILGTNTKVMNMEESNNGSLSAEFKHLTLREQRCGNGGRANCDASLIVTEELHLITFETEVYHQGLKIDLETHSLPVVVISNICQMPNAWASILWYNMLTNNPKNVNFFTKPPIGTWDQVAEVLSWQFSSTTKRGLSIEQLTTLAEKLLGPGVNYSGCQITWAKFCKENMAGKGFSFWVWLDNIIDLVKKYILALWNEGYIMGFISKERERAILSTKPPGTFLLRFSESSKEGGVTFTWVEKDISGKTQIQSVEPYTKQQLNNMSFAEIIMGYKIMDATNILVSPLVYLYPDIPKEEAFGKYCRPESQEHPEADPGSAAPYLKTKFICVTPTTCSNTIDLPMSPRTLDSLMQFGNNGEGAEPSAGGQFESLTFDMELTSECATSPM
T1 sequence (P43378 whole entry partner): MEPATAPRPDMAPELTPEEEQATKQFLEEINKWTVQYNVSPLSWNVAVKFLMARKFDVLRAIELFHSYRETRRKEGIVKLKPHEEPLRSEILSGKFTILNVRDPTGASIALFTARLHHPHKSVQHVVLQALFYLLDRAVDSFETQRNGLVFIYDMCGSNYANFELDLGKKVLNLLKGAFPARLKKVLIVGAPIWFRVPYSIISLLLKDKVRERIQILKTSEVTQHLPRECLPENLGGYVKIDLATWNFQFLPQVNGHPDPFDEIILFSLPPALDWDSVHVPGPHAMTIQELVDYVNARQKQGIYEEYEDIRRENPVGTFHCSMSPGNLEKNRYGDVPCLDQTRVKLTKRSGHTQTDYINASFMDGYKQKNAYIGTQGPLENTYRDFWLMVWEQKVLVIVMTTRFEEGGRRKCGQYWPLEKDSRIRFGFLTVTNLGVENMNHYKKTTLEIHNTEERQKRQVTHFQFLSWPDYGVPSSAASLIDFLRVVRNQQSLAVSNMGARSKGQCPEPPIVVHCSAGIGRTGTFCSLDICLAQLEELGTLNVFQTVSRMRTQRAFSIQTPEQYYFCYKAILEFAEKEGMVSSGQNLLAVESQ

[13] = system: DU-145; test: Cell cycle arrest in human DU145 cells assessed as accumulation at G2/M phase at 10 uM after 12 hrs by FACS analysis (reference value: 24%); format: functional
[14] = biological target: T2, Signal transducer and activator of transcription 5A (Homo sapiens) (UniProt P42229); test: Inhibition of STAT5 phosphorylation in human DU145 cells after 24 hrs by Western blot method; format: cell-based
T2 sequence (whole entry): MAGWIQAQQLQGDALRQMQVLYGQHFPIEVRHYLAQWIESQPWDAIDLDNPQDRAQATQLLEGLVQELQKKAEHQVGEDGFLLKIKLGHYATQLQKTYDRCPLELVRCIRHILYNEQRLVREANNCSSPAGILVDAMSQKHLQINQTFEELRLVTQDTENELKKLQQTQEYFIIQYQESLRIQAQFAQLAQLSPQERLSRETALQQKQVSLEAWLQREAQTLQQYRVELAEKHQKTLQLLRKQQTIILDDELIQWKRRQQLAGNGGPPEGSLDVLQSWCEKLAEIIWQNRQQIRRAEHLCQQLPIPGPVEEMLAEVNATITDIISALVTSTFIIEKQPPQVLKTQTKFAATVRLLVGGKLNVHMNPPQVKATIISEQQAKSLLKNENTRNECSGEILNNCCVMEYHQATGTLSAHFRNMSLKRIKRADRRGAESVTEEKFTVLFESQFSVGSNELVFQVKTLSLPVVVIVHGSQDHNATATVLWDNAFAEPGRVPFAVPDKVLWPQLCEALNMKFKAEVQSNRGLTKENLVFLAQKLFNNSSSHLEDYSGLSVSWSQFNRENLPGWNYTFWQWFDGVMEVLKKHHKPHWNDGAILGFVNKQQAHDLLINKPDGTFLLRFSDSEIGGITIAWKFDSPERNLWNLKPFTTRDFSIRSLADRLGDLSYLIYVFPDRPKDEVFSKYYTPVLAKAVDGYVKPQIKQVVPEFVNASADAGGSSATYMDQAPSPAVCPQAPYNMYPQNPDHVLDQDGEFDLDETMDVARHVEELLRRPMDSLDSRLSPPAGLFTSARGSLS

[15] = biological target: T1, PTPN9/STAT3 (Homo sapiens); test: Modulation of MEG2 in human DU145 cells assessed as inhibition of STAT3 activation by measuring down regulation of Cyclin D1 level at 10 uM after 24 hrs by Western blot method; format: cell-based
[16] = biological target: Signal transducer and activator of transcription 3 (Homo sapiens) (UniProt P40763); test: Inhibition of STAT3 phosphorylation at Tyr-705 residue in human DU145 cells harboring SHP2 siRNA at 10 uM after 12 hrs by Western blot method; format: cell-based
Sequence of Signal transducer and activator of transcription 3 (Homo sapiens) (P40763 whole entry): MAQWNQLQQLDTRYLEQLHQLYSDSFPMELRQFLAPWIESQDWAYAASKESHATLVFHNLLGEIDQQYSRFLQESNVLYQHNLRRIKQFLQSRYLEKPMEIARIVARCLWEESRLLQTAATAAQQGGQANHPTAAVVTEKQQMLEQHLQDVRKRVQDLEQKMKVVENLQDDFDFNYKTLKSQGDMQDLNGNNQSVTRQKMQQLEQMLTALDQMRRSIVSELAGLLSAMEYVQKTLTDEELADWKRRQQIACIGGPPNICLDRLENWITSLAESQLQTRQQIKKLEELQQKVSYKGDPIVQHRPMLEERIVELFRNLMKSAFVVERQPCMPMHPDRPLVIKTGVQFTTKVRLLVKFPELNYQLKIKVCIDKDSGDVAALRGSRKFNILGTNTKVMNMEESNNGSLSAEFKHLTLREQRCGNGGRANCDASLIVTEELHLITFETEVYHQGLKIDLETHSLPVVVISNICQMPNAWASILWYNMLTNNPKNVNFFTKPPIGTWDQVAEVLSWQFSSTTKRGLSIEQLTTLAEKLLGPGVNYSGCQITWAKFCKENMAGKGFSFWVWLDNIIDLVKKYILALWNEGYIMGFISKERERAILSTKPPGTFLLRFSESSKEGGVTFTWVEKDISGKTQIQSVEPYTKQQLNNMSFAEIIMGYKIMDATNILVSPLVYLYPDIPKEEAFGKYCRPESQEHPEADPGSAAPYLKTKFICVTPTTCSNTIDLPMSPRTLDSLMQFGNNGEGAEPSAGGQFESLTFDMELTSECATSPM

[17] = biological target: T1, PTPN9/STAT3 (Homo sapiens); test: Modulation of MEG2 in human DU145 cells assessed as inhibition of STAT3 phosphorylation at Tyr-705 residue at 10 uM after 24 hrs in presence of phosphatase inhibitor Na3VO4 by Western blot method; format: cell-based
[18] = system: DU-145; test: Cell cycle arrest in human DU145 cells assessed as accumulation at G0/G1 phase at 10 uM after 48 hrs by FACS analysis (reference value: 41.1%); format: functional
[19] = system: LNCaP; test: Antiproliferative activity against human LNCAP cells by WST1 assay; format: functional, cell-based
[20] = system: DU-145; test: Cell cycle arrest in human DU145 cells assessed as accumulation at S phase at 10 uM after 48 hrs by FACS analysis (reference value: 7.7%); format: functional
[21] = system: DU-145; test: Cell cycle arrest in human DU145 cells assessed as accumulation at G2/M phase at 10 uM after 48 hrs by FACS analysis (reference value: 24%); format: functional
[22] = biological target: Signal transducer and activator of transcription 3 (Homo sapiens) (UniProt P40763); test: Inhibition of STAT3 phosphorylation at Tyr-705 residue in human DU145 cells harboring MEG2 siRNA at 10 uM after 12 hrs by Western blot method; format: cell-based
[23] = biological target: T1, PTPN9/STAT3 (Homo sapiens); test: Modulation of MEG2 in human DU145 cells assessed as inhibition of STAT3 activation by measuring down regulation of Mcl1 level at 10 uM after 24 hrs by Western blot method; format: cell-based
[24] = biological target: T1, PTPN9/STAT3 (Homo sapiens); test: Modulation of MEG2 in human HCT116 cells harboring pSTAT3 (unknown origin)-TA-Luc assessed as inhibition of STAT3 transcriptional activity after 24 hrs by luciferase reporter gene assay; format: cell-based
[25] = biological target: T1, PTPN9/STAT3 (Homo sapiens); test: Modulation of MEG2 in human LNCAP cells assessed as inhibition of IL-6-stimulated STAT3 phosphorylation at 10 uM pretreated for 12 hrs followed by IL-6 stimulation for 30 mins by Western blot method; format: cell-based
[26] = system: DU-145; test: Cell cycle arrest in human DU145 cells assessed as accumulation at S phase at 10 uM after 12 hrs by FACS analysis (reference value: 7.7%); format: functional
[27] = biological target: Protein farnesyltransferase (Homo sapiens, UniProt P49354+P49356); test: Inhibition of FPTase (unknown origin); format: protein-complex assay
[28] = biological target: T1, PTPN9/STAT3 (Homo sapiens); test: Modulation of MEG2 in human DU145 cells assessed as inhibition of STAT3 phosphorylation at Tyr-705 residue at 20 uM after 24 hrs by Western blot method; format: cell-based
[29] = biological target: T3, Signal transducer and activator of transcription 1-alpha/beta (Homo sapiens) (UniProt P42224); test: Inhibition of STAT1 phosphorylation in human DU145 cells after 24 hrs by Western blot method; format: cell-based
T3 sequence (whole entry): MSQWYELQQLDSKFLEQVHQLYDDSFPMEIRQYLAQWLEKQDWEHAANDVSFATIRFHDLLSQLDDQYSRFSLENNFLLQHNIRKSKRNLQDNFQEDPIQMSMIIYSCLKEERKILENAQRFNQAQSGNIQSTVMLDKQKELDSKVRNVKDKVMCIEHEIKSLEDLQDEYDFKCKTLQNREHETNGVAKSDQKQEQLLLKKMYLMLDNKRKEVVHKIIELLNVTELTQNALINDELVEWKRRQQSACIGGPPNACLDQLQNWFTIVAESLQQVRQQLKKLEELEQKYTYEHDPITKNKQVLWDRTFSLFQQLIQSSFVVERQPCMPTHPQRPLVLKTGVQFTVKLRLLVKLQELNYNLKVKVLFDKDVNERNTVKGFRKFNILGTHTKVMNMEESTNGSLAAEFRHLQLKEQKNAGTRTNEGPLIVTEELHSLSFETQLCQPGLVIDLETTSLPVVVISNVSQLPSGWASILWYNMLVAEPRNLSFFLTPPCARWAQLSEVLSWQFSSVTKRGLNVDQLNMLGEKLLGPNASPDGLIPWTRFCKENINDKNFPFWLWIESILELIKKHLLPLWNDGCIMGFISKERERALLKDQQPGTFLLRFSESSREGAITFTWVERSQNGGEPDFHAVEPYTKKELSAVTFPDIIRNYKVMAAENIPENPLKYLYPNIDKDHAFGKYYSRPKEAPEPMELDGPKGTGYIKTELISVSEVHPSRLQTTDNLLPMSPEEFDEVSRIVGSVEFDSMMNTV

[30] = system: DU-145; test: Cell cycle arrest in human DU145 cells assessed as accumulation at G2/M phase at 10 uM after 24 hrs by FACS analysis (reference value: 24%); format: functional
[31] = system: DU-145; test: Cell cycle arrest in human DU145 cells assessed as accumulation at G0/G1 phase at 10 uM after 24 hrs by FACS analysis (reference value: 41.1%); format: functional
[32] = biological target: T1, PTPN9/STAT3 (Homo sapiens); test: Modulation of MEG2 in human DU145 cells assessed as inhibition of STAT3 activation by measuring down regulation of Bcl2 level at 10 uM after 24 hrs by Western blot method; format: cell-based
[33] = system: DU-145; test: Antiproliferative activity against human DU145 cells after 48 hrs by WST1 assay; format: functional; conditions: DU-145, 48 h
[34] = biological target: T1, PTPN9/STAT3 (Homo sapiens); test: Modulation of MEG2 in human DU145 cells assessed as inhibition of STAT3 activation by measuring down regulation of survivin level at 10 uM after 24 hrs by Western blot method; format: cell-based
[35] = system: DU-145; test: Cell cycle arrest in human DU145 cells assessed as accumulation at G0/G1 phase at 10 uM after 12 hrs by FACS analysis (reference value: 41.1%); format: functional

## COC1=CC(=O)/C(=C(\C=C\c2ccccc2)OC)C1=O
[1]
  Activity: 20.8%
[2]
  Activity: Active
[3]
  Activity: 4.1%
[4]
  Activity: Non-Toxic
[5]
  inhibition: inactive
[6]
  Activity: Tde
[7]
  Activity: 8.5%
[8]
  Activity: inactive
[9]
  inhibition: inactive
[10]
  Activity: inactive
[11]
  Activity: 4.5%
[12]
  inhibition: Active
[13]
  Activity: 34%
[14]
  inhibition: inactive
[15]
  inhibition: Active
[16]
  inhibition: Active
[17]
  inhibition: inactive
[18]
  Activity: 36.7%
[19]
  Activity: inactive
[20]
  Activity: 5.6%
[21]
  Activity: 31.6%
[22]
  inhibition: inactive
[23]
  inhibition: Active
[24]
  inhibition: Dose-dependent effect
[25]
  inhibition: Active
[26]
  Activity: 7.8%
[27]
  IC50: > 40 µM
[28]
  inhibition: > 90%
[29]
  inhibition: inactive
[30]
  Activity: 23.6%
[31]
  Activity: 50.3%
[32]
  inhibition: Active
[33]
  GI50: 15 µM
[34]
  inhibition: Active
[35]
  Activity: 43.5%
